In patent publication US20220298115A1, “SMALL MOLECULE INHIBITORS OF ACETYL COENZYME A SYNTHETASE SHORT CHAIN 2 (ACSS2)” (Curadev Pharma Pvt. Ltd., priority 2019, published 2022) one finds IC50 data, which are given here for 14 compounds.

Each structure is given as a SMILES string. Where only a bound is given, the exact number is not on record here.

Experiment [1] has as its system [14C] acetate incorporation in macromolecules, BT474 cells. Briefly: Cell based [14C] acetate incorporation assay. The settings on record: Homo sapiens, BT-474, 3 h at 37° C., read-out: Cellular Activity (IC50 range). As for the experimental part:
Cell Based [^14C] Acetate Incorporation Assay
In the cellular assay, ACSS2 inhibitors were screened against [^14C] acetate incorporation in macromolecules. 4×10^4 BT474 cells were plated in 96 well plates in growth media composed of DMEM & 10% FBS and incubated overnight in a 37° C., 5% CO2 incubator. The following day the cells were washed in HBSS and the assay was performed in 100 μl of HBSS. 50 μl of 4× compound in 4% DMSO was added to the cells and preincubated for 10 min. at 37° C. 50 μl of acetate solution (0.1 μCi ^14C acetate+10 μM ^12C acetate) was added to each well of the plate and incubated for 3 h in a 37° C., 5% CO2 incubator. Following incubation, cells were harvested with water on polyethylene imine (PEI) presoaked GF/C filtermat, air dried and radioactive count were recorded in Trilux micro beta Liquid Scintillation Counter (PerkinElmer).

In another experiment the target is T1, human ACSS2 (Homo sapiens, UniProt Q9NR19).
T1 construct: The cytosolic fraction of BT474 cells was used as a source of the ACSS2 enzyme; endogenous in cells; host or cells: BT474 cells (cytosolic fraction)
T1 sequence (Q9NR19 whole entry): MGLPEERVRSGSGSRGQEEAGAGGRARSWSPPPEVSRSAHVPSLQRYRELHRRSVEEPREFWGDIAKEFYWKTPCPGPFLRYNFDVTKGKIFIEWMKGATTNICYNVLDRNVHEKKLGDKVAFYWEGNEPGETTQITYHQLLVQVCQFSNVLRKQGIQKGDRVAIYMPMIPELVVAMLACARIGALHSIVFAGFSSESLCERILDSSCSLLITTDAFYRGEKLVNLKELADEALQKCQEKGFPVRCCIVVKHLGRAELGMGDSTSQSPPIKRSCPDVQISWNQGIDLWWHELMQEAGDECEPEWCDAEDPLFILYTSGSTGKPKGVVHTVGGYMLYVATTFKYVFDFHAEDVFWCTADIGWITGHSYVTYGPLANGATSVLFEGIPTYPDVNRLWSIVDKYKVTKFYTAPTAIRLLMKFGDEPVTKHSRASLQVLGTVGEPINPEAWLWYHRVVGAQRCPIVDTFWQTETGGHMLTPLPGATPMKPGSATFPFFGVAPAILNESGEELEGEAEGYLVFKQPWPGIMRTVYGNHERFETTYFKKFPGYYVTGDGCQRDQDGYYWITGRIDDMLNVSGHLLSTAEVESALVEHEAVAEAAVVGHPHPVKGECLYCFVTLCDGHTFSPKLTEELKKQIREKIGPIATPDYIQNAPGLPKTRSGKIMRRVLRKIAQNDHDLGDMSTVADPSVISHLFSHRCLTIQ
Briefly: ACSS2 enzyme assay (acetyl-CoA formation, LC-MS/MS). As to conditions: cytosolic fraction of BT474 cells as ACSS2 source; 100 μM acetate, CoA and ATP; 2 h at 25° C.; read-out: Enzyme Activity (IC50 range). The experiment is classed as biochemical. The procedure:
Novel compounds were screened in a human ACSS2 enzyme assay. Briefly, the ACSS2 enzyme reaction was monitored by directly measuring acetyl-CoA formation. The cytosolic fraction of BT474 cells was used as a source of the ACSS2 enzyme. A short protocol for this assay is provided below.
Preparation of Cytosolic Fraction from BT474 Cells
9×10^6 cells were harvested by trypsinization followed by centrifugation. The cell pellet was washed with PBS and dissolved in 500 μl STM buffer (50 mM Tris-HCl pH7.4, 250 mM sucrose, 5 mM MgCl2 & protease-phosphatase inhibitor cocktail) and homogenized at 600-1000 rpm for 1 min. on ice followed by incubation for 30 min. with intermittent vortexing. Supernatant was collected by centrifugation at 800 g for 15 min. at 4° C. Cytosolic fraction was prepared by further centrifugation of the supernatant at 12000 g for 15 min. at 4° C. Total protein content of the cytosolic fraction was estimated & diluted to 1 mg/ml concentration in storage buffer (25 mM Tris-HCl pH7.4, 1 mM MgCl2, 1 mM DTT & 10% glycerol) and stored at −80° C. for further use.
100 ng of cytosolic fraction in buffer composed of 25 mM Tris-HCl pH7.4 1 mM MgCl2, 1 mM DTT & 0.05% Tween20 was preincubated with desired concentrations of novel compounds for 5 min. maintaining 1% DMSO. Reaction was started with addition of substrate mix (100 μM of acetate, CoA and ATP) and incubated for 2 h at 25° C. with constant shaking at 500 rpm. Post incubation the reaction was terminated by addition of 10% TCA followed by 5 fold dilution in water. The reaction mixture was centrifuged at 800 g for 10 min. at RT and acetyl-CoA detected in supernatant by LC-MS/MS (QTrap5500 ABSCIEX).

As for `CCC(O)CNC(=O)Nc1ccc2nc(-c3ccncc3)c(-c3ccccc3F)cc2c1` (stereo not shown) [Example 34, 1-(3-(2-fluorophenyl)-2-(pyridin-4-yl)quinolin-6-yl)-3-(2-hydroxybutyl) urea], the half-inhibitory concentration (IC50) (in experiment [1]; at human ACSS2) was below 100 nM throughout.
Take `CCC(O)CNC(=O)Nc1ccc2nc(-c3ccc(F)cc3)c(-c3ccccc3F)cc2c1` (stereo not shown) [Example 47, 1-(3-(2-fluorophenyl)-2-(4-fluorophenyl)quinolin-6-yl)-3-(2-hydroxybutyl) urea]: the IC50 (in experiment [1]; at human ACSS2) was below 100 nM throughout.
Regarding `CC[C@@H](O)CNC(=O)Nc1ccc2nc(C)c(-c3ccccc3)cc2c1-c1cnn(C)c1` [Example 96, (R)-1-(2-hydroxybutyl)-3-(2-methyl-5-(1-methyl-1H-pyrazol-4-yl)-3-phenylquinolin-6-yl)urea], the IC50 (in experiment [1]; at human ACSS2) was below 100 nM throughout.
With `O=C(Nc1ccc2nc(-c3ccccc3)c(-c3ccccc3)cc2c1)Nc1ccccn1` [Example 139, 1-(2,3-diphenylquinolin-6-yl)-3-(pyridin-2-yl)urea], the IC50 (in experiment [1]; on human ACSS2) was above 10000 nM each time.
For the compound `CCOc1ccccc1-c1nc2ccc(NC(=O)NCC(O)CC)cc2cc1-c1ccccc1` (stereo not shown) [Example 58, 1-(2-(2-ethoxyphenyl)-3-phenylquinolin-6-yl)-3-(2-hydroxybutyl) urea], the concentration for half-maximal inhibition (IC50) (in experiment [1]; at human ACSS2) was below 100 nM each time.
Consider `CCC(O)CNC(=O)Nc1ccc2nc(/C=C/c3ccccc3)c(-c3ccccc3)cc2c1` (stereo not shown) [Example 50, (E)-1-(2-hydroxybutyl)-3-(3-phenyl-2-styrylquinolin-6-yl)urea], for which the figures for the concentration for half-maximal inhibition (IC50) (in experiment [1]; at human ACSS2) were above 10000 nM and at most 10000 nM, respectively.
The corresponding values for `CC[C@@H](O)CNC(=O)Nc1ccc2nc(-c3ccccc3)c(-c3ccccc3)c(C(=O)Nc3ccn(C)n3)c2c1` [Example 112, (R)-6-(3-(2-hydroxybutyl)ureido)-N-(1-methyl-1H-pyrazol-3-yl)-2,3-diphenylquino-line-4-carboxamide] are below 100 nM and below 100 nM.
The corresponding values for `CCC(O)CCC(=O)Nc1ccc2nc(C)c(-c3ccccc3)cc2c1` (stereo not shown) [Example 130, 4-hydroxy-N-(2-methyl-3-phenyl-quinolin-6-yl)hexan-amide] are at most 1000 nM and below 100 nM.
The corresponding values for `CCC(O)CNC(=O)Nc1ccc2nc(C)c(-c3ccccc3)c(NC(C)=O)c2c1` (stereo not shown) [Example 93, N-(6-(3-(2-hydroxybutyl)ureido)-2-methyl-3-phenylquinolin-4-yl)acetamide] are at most 1000 nM and below 100 nM.
In the case of `CCC(CNC(=O)Nc1ccc2nc(C)c(-c3ccccc3)cc2c1)NC(C)=O` (stereo not shown) [Example 99, N-(1-(3-(2-methyl-3-phenylquinolin-6-yl)ureido)butan-2-yl)acetamide], the IC50 (in experiment [1]; at human ACSS2) was at most 1000 nM in each case.
Turning to `CC[C@@H](O)CNC(=O)Nc1ccc2nc(C)c(-c3ccccc3F)cc2c1` [Example 100, (R)-1-(3-(2-fluorophenyl)-2-methylquinolin-6-yl)-3-(2-hydroxybutyl) urea], the 50% inhibitory concentration (IC50) (in experiment [1]; on human ACSS2) was below 100 nM each time.
For `C=CCNC(=O)Nc1ccc2nc(-c3ccccc3)c(-c3ccccc3)cc2c1` [Example 134, 1-allyl-3-(2,3-diphenylquinolin-6-yl)urea], the IC50 (in experiment [1]; on human ACSS2) was at most 1000 nM throughout.
As to `C#CCNC(=O)Nc1ccc2nc(-c3ccccc3)c(-c3ccccc3)cc2c1` [Example 135, 1-(2,3-diphenylquinolin-6-yl)-3-(prop-2-yn-1-yl)urea], the IC50 (in experiment [1]; at human ACSS2) was at most 1000 nM throughout.
Regarding `CC[C@@H](O)CNC(=O)Nc1ccc2nc(C)c(-c3ccccc3)c(OC)c2c1` [Example 102, (R)-1-(2-hydroxybutyl)-3-(4-methoxy-2-methyl-3-phenylquinolin-6-yl)urea], the IC50 (in experiment [1]; on human ACSS2) was below 100 nM throughout.
